What was measured:
Type in all cases: binding
SRCA = molecular target: T1, SRCA (Homo sapiens, UniProt P12931); assay: DSF assay; settings: 20 µM compound
T1 construct: purchased in-house DSF panel (SGC-style construct names; the trailing A/B is a construct suffix)

AAK1 = molecular target: T2, AAK1 (Homo sapiens, UniProt Q2M2I8); assay: Kinobeads selectivity profiling; settings: Jurkat lysate, dose series given in nM; for Kd: read-out: Kd (apparent dissociation constant, corrected for protein depletion)
T2 construct: endogenous in cells; host or cells: Jurkat (Clone E6.1) cell lysate
Procedure: (§1) Excitation and emission filters […]
(§2) curve. […] Measurements were
(§3) Kinobeads selectivity profiling of PROTACs
(§4) (Multiplexion, Heidelberg, Germany).
(§5) The cell lysate was ultracentrifuged and diluted
(§6) NaF, 1 mM DTT, protease inhibitors and phosphatase inhibitors to a final concentration of 5 mg/ml as determined by Bradford assay. For selectivity profiling of compounds the cell lysate (2.5 mg of total proteins per pulldown) was pre-incubated with increasing compound […]
µM) for 45 min at 4 °C in an end-over-end shaker. Subsequently, lysates were incubated with Kinobeads epsilon (17 µL settled beads) for 30 min at 4 °C. To assess the degree of protein depletion from the lysates by Kinobeads, the flow-through of the DMSO control was recovered […]
for a pulldown of pulldown experiment where the lysate was incubated a second time with fresh Kinobeads. Beads were washed in 3 steps with buffer containing 0.4%, 0.2% and no NP40.
Bound proteins were reduced with 50 mM DTT in 8 M Urea, 40 mM Tris-HCl pH 7.4 for 30 min at room temperature. After alkylation with 55 mM chloroacetamide (CAA), the Urea concentration was reduced to 1 – 2 M and proteins were digested using trypsin. Acidified peptides were desalted and concentrated using SepPak tC18 µEluation plates (Waters).
Samples were frozen, dried by vacuum centrifugation and stored at -20 °C.
LC-MS2 analysis. Peptides were measured on a Dionex Ultimate3000 nano HPLC coupled online to an Orbitrap Fusion Lumos (Thermo Fisher Scientific) mass spectrometer.
Peptides were dissolved in 0.1% formic acid and delivered to a trap column (ReproSil-pur C18-AQ, 5 μm, Dr. Maisch, 20 mm × 75 μm, self-packed) at a flow rate of 5 μL/min in LC solvent A (0.1 % formic acid).4 After 10 min of loading, peptides were transferred to an analytical column (ReproSil Gold C18-AQ, 3 μm, Dr. Maisch, 400 mm × 75 μm, self-packed) and separated using […]
acetonitrile) in LC solvent A.
The Orbitrap Fusion Lumos was operated as follows: positive polarity; spray voltage 2.1 kV, […]
A full-scan (MS1) was recorded from 360 to 1300 m/z with a resolution of 60,000 in the Orbitrap in profile mode. The MS1 AGC target was set to 4e5 and the maxIT was set to 50 ms, RF lens value was set to 50%. Based on the full scans, precursors were targeted for the MS/MS scans […]
intensity exceeded 2.5e4. The dynamic exclusion was set to 30 sec and exclude isotopes was switched on. The MS2 quadrupole isolation window was set to 1.7 m/z. Peptide fragmentation occurred in the ion routing multipole (IRM) by HCD with a fixed collision energy mode, the […]

FESA = molecular target: T3, FESA (Homo sapiens, UniProt P07332); assay: DSF assay; settings: 20 µM compound
T3 construct: purchased in-house DSF panel (SGC-style construct names; the trailing A/B is a construct suffix)

MAPK10A = molecular target: T4, MAPK10A (Homo sapiens, UniProt P53779); assay: DSF assay; settings: 20 µM compound
T4 construct: purchased in-house DSF panel (SGC-style construct names; the trailing A/B is a construct suffix)

RIOK1A = molecular target: T5, RIOK1A (Homo sapiens, UniProt Q9BRS2); assay: DSF assay; settings: 20 µM compound
T5 construct: purchased in-house DSF panel (SGC-style construct names; the trailing A/B is a construct suffix)
T5 sequence (Q9BRS2 143-494): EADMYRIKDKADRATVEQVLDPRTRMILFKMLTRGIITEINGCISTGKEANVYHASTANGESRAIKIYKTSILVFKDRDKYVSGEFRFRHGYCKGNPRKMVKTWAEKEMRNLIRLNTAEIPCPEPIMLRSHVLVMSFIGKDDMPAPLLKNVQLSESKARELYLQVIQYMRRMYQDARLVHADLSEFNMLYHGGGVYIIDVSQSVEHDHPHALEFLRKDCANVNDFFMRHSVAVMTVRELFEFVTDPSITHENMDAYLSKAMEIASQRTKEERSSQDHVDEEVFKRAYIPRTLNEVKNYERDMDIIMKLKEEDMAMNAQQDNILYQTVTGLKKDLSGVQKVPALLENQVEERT

BRD4 = molecular target: T6, BRD4 (Homo sapiens, UniProt O60885); assay: DSF assay; settings: 20 µM compound
T6 construct: purchased in-house DSF panel (SGC-style construct names; the trailing A/B is a construct suffix)
Procedure: as §1, §2, §3, §4, §5, §6
(§7) µM) for 45 min at 4 °C in an end-over-end shaker. Subsequently, lysates were incubated with Kinobeads epsilon (17 µL settled beads) for 30 min at 4 °C. To assess the degree of protein depletion from the lysates by Kinobeads, the flow-through of the DMSO control was recovered

MAPK8B = molecular target: T7, MAPK8B (Homo sapiens, UniProt P45983); assay: DSF assay; settings: 20 µM compound
T7 construct: purchased in-house DSF panel (SGC-style construct names; the trailing A/B is a construct suffix)
Procedure: as §1, §2, §3, §4, §5, §6, §7

PIM1A = molecular target: T8, PIM1A (Homo sapiens, UniProt P11309); assay: DSF assay; settings: 20 µM compound
T8 construct: purchased in-house DSF panel (SGC-style construct names; the trailing A/B is a construct suffix)
Procedure: as §1, §2, §3, §4, §5, §6, §7

PKMYT1A = molecular target: T9, PKMYT1A (Homo sapiens, UniProt Q99640); assay: DSF assay; settings: 20 µM compound
T9 construct: purchased in-house DSF panel (SGC-style construct names; the trailing A/B is a construct suffix)
T9 sequence (Q99640 75-362): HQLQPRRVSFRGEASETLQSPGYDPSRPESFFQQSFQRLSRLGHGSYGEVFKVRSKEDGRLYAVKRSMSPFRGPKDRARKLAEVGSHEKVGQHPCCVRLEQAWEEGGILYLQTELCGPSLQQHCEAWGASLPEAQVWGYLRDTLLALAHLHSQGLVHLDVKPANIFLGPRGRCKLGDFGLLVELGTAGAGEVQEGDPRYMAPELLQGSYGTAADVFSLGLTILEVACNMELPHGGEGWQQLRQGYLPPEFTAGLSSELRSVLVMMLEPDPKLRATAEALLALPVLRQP
Procedure: as §1, §2, §3, §4, §5, §6, §7

BMP2KA = molecular target: T10, BMP2KA (Homo sapiens, UniProt Q9NSY1); assay: DSF assay; settings: 20 µM compound
T10 construct: purchased in-house DSF panel (SGC-style construct names; the trailing A/B is a construct suffix)
Procedure: as §1, §2, §3, §4, §5, §6, §7

MAPK9A = molecular target: T11, MAPK9A (Homo sapiens, UniProt P45984); assay: DSF assay; settings: 20 µM compound
T11 construct: purchased in-house DSF panel (SGC-style construct names; the trailing A/B is a construct suffix)
Procedure: as §1, §2, §3, §4, §5, §6, §7

CLK3A = molecular target: T12, CLK3A (Homo sapiens, UniProt P49761); assay: DSF assay; settings: 20 µM compound
T12 construct: purchased in-house DSF panel (SGC-style construct names; the trailing A/B is a construct suffix)
Procedure: as §1, §2, §3, §4, §5, §6, §7

FGFR3A = molecular target: T13, FGFR3A (Homo sapiens, UniProt P22607); assay: DSF assay; settings: 20 µM compound
T13 construct: purchased in-house DSF panel (SGC-style construct names; the trailing A/B is a construct suffix)
Procedure: as §1, §2, §3, §4, §5, §6, §7

AKT3A = molecular target: T14, AKT3A (Homo sapiens, UniProt Q9Y243); assay: DSF assay; settings: 20 µM compound
T14 construct: purchased in-house DSF panel (SGC-style construct names; the trailing A/B is a construct suffix)
T14 sequence (Q9Y243 141-479): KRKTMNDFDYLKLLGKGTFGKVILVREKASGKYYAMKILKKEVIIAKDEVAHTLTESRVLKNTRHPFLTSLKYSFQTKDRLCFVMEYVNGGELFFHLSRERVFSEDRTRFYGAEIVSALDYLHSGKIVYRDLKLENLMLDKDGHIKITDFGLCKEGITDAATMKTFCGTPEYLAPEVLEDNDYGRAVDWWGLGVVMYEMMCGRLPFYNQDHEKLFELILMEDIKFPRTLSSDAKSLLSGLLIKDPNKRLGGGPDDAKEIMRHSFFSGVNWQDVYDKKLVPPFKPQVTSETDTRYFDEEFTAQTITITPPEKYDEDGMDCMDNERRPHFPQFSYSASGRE

T3 sequence (P07332 whole entry): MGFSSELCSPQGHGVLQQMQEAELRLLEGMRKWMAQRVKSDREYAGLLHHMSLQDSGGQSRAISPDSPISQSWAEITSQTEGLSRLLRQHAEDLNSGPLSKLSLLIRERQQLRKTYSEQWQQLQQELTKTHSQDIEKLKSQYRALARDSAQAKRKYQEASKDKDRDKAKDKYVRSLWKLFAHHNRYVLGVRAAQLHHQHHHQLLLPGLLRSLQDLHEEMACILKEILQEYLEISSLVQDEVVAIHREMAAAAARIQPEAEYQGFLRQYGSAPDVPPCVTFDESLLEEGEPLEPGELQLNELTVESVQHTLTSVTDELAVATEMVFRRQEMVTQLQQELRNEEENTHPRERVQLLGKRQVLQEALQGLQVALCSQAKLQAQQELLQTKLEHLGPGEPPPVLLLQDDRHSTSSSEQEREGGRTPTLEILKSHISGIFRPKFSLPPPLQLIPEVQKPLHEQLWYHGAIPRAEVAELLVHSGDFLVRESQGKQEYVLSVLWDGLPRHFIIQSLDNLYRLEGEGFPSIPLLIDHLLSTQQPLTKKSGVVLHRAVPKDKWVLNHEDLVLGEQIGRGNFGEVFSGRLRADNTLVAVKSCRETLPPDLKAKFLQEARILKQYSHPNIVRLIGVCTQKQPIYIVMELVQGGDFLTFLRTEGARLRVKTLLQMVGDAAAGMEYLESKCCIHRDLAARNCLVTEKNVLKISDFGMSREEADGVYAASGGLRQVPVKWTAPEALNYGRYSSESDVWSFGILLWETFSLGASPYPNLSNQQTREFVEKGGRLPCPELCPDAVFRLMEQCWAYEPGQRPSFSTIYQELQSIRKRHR
T12 sequence (P49761 127-484): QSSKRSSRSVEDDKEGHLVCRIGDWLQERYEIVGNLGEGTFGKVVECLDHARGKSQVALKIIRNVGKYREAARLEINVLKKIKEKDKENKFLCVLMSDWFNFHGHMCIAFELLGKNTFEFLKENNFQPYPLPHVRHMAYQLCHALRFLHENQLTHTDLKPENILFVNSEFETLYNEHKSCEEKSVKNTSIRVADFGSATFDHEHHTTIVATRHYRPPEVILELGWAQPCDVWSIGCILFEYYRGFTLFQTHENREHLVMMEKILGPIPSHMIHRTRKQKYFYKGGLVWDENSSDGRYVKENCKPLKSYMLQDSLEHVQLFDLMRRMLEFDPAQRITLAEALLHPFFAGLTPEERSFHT
T2 sequence (Q2M2I8 whole entry): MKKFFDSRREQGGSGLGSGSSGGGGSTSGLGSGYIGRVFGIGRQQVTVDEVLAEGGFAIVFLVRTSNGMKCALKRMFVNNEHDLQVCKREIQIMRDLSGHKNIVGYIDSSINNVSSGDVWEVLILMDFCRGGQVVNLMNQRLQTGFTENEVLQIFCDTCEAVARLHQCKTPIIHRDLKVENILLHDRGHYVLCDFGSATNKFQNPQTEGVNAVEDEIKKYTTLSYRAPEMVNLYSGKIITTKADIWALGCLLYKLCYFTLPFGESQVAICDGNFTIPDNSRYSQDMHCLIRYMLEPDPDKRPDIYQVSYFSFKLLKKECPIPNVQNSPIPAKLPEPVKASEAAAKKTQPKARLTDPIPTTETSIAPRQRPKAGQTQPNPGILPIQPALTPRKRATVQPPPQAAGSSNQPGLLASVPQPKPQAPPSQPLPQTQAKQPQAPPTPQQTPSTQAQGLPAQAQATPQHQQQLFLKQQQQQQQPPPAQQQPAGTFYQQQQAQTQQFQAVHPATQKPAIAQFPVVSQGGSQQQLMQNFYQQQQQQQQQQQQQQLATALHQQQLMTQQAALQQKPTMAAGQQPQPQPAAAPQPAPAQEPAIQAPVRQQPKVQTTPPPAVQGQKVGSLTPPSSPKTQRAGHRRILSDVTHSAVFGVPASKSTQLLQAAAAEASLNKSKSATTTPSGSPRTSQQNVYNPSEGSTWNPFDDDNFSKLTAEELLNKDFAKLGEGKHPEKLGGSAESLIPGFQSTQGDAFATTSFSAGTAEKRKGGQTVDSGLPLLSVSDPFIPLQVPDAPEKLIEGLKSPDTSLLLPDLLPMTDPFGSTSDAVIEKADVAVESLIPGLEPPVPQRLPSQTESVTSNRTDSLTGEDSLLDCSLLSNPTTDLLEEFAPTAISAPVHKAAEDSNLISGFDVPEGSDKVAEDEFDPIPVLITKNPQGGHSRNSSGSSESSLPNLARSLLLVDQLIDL
T11 sequence (P45984 1-364): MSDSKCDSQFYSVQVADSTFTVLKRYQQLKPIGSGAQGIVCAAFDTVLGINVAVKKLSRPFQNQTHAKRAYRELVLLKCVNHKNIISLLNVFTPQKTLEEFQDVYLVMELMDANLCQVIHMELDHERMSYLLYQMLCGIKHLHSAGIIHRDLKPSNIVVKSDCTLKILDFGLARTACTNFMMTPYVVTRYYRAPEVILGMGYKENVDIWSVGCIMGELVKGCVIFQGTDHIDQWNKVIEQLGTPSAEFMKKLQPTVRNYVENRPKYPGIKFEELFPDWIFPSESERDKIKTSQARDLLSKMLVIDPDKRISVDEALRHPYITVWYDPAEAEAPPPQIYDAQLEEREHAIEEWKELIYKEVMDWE
T10 sequence (Q9NSY1 38-345): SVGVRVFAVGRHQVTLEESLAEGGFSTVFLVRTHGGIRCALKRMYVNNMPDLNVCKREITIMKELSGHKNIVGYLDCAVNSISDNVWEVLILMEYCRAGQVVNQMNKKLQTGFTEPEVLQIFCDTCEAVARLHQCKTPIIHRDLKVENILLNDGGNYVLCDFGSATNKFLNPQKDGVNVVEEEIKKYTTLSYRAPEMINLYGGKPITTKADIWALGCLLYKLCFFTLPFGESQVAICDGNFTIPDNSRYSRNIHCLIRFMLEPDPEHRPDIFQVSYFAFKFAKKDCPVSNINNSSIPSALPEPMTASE
T1 sequence (P12931 254-536): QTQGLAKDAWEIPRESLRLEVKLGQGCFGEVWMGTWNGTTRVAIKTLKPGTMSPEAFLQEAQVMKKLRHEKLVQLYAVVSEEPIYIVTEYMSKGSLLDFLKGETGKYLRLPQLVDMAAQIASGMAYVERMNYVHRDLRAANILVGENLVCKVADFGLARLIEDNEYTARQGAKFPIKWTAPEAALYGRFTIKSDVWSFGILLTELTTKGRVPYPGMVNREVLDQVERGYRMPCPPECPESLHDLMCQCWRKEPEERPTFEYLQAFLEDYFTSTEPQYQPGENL
T13 sequence (P22607 455-768): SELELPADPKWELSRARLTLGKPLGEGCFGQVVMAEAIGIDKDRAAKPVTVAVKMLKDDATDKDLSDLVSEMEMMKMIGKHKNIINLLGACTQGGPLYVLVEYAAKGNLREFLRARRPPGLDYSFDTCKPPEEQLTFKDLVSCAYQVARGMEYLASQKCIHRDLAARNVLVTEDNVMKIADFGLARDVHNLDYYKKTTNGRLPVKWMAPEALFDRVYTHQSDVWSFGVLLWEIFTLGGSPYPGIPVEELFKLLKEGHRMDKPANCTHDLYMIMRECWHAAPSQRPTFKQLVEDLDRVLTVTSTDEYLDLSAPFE
T8 sequence (P11309 whole entry): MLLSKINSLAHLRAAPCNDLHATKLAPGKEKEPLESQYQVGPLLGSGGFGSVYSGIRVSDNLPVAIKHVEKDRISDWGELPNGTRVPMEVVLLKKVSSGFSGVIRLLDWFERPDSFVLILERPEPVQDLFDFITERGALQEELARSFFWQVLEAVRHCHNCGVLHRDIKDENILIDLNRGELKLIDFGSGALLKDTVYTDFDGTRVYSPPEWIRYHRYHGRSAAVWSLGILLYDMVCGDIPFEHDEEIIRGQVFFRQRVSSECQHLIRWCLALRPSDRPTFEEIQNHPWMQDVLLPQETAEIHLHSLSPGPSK
T4 sequence (P53779 whole entry): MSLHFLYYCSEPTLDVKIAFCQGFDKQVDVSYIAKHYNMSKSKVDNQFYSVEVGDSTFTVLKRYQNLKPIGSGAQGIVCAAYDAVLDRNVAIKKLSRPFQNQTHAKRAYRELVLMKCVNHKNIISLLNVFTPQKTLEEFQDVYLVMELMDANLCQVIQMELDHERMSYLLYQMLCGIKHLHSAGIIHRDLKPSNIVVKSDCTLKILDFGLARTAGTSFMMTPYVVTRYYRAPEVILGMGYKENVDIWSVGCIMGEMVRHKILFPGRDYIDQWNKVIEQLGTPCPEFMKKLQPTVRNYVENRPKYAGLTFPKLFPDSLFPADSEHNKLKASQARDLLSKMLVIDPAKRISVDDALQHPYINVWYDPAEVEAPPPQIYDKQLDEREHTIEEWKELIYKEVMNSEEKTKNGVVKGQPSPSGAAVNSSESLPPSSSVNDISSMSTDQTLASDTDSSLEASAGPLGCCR
T7 sequence (P45983 1-364): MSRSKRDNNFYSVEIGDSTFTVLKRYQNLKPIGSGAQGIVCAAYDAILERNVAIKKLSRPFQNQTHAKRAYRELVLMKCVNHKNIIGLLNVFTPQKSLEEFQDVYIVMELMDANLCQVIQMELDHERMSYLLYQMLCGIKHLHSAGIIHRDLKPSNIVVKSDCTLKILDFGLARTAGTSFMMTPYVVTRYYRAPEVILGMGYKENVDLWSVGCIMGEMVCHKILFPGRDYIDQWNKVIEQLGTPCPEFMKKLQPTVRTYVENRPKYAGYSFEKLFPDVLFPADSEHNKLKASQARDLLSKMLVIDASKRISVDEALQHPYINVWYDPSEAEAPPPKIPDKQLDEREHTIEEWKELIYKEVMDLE

| ΔTm at 20 µM (SRCA) | Kd (AAK1) | ΔTm at 20 µM (FESA) | ΔTm at 20 µM (MAPK10A) | ΔTm at 20 µM (RIOK1A) | ΔTm at 20 µM (BRD4) | ΔTm at 20 µM (MAPK8B) | ΔTm at 20 µM (PIM1A) | ΔTm at 20 µM (PKMYT1A) | ΔTm at 20 µM (BMP2KA) | ΔTm at 20 µM (MAPK9A) | ΔTm at 20 µM (CLK3A) | ΔTm at 20 µM (FGFR3A) | ΔTm at 20 µM (AKT3A) | Kd (apparent dissociation constant, corrected for protein depletion) (AAK1) | Compound |
| --- | --- | --- | --- | --- | --- | --- | --- | --- | --- | --- | --- | --- | --- | --- | --- |
| 7.07 °C | 6.67 nM | 4.19 °C | 5.76 °C | -0.05 °C | 0.18 °C | 6.93 °C | -0.76 °C | -2.93 °C | 21.5 °C | 4.27 °C | 6.42 °C | 11.4 °C | 0.51 °C | – | CC(C)(C)OC(=O)NCCOCCOCCOCCOCCC(=O)N1CCN(c2cc(Nc3cc(C4CC4)[nH]n3)nc(Nc3ccc(CC#N)cc3)n2)CC1 [4-L] |
| 2.2 °C | 35.5 nM | 2.67 °C | 6.08 °C | 5.35 °C | -0.79 °C | 6.48 °C | -1.48 °C | -0.12 °C | 17.7 °C | 4.61 °C | 9.33 °C | 7 °C | 0.12 °C | – | CC(C)(C)OC(=O)NCCCOCCOCCOCCCNC(=O)c1cc(Nc2cc(C3CC3)[nH]n2)nc(Nc2ccc(CC#N)cc2)n1 [5-L] |
| 3.24 °C | – | 3.17 °C | 5.33 °C | 4.9 °C | 1.16 °C | 4.31 °C | -0.9 °C | -1.04 °C | 18 °C | 2.84 °C | 9.57 °C | 8.45 °C | 1.18 °C | 62.7409 | CCOC(=O)c1cc(Nc2cc(C3CC3)[nH]n2)nc(Nc2ccc(CC#N)cc2)n1 [compound 5] |

Source: article PMC11851430, “Workflow for E3 Ligase Ligand Validation for PROTAC Development” (ACS Chemical Biology, 2025)
